According to patent US20170119806A1, “[…] LACTONE DERIVATIVES AND METHODS OF MAKING AND USING THEREOF” (OHIO STATE INNOVATION FOUNDATION, priority 2014, published 2017):
“Also recorded” adds a separate entry of the source.

Tests used:
[1] = target: topo IIα (Homo sapiens, UniProt P11388); experiment: Topoisomerase II assay (DNA cleavage/relaxation); type: biochemical; conditions: 100 μM test compound
Text: The formation of linear DNA was detected by separating the SDS-treated reaction products using ethidium bromide gel electrophoresis and quantified by accounting for the relationship between fluorescence and relative band intensity for open circular (OC), linear (LNR), supercoiled (SC), and relaxed (RLX) configurations of DNA.
Topoisomerase II Assay. […] The formation of linear DNA was detected by separating the SDS-treated reaction products using ethidium bromide gel electrophoresis by a modification of a previously described procedure (Hasinoff B B et al. Mol. Pharmacol. 2005, 67, 937-947). In this system, topo II-mediated catalytic conversion of supercoiled pBR322 DNA to the “relaxed” form of plasmic' DNA can also be observed. A 20 μL cleavage assay reaction mixture contained 250 ng topo IIα protein, 160 ng pBR322 plasmid DNA (NEB, Ipswich, Mass.), 1.0 mM ATP in assay buffer (10 mM Tris-HCl (pH 7.5), 50 mM KCl, 50 mM NaCl, 0.1 mM EDTA, 5 mM MgCl2, 2.5% glycerol), and 100 μM of test compounds or DMSO solvent, as indicated. Assay buffer (17 μL) and test compound/DMSO (1 μL) were mixed and allowed to sit at room temperature for 30 min after which 2 μL of topo IIα was added to initiate the reaction. Tubes were incubated at 37° C. for 15 min, and then quenched with 1% (v/v) SDS/10 mM disodium EDTA/200 mM NaCl. The mixture was treated subsequently with 0.77 mg/mL proteinase K (Sigma) at 55° C. for 60 min to digest the protein, and DNA bands were separated by electrophoresis (18 h at 2 V/cm) on an agarose gel (1.3% w/v) containing 0.7 μg/mL ethidium bromide in TAE buffer pH 8.0 (40 mM Tris base, 0.114% (v/v) glacial acetic acid, 2 mM EDTA). The DNA in the gel was imaged by its fluorescence on a Chemi-Doc XRS+ imager (Bio-Rad, Hercules, Calif.). Linear DNA was quantified by accounting for the relationship between fluorescence and relative band intensity for open circular (QC), linear (LNR), supercoiled (SC), and RLX (relaxed) configurations of DNA (Projan S J et al. Plasmid 1983, 9, 182-190), then calculating % of LNR from the total DNA content in each lane.

[2] = Solubility in aqueous solutions; type: physicochemical
[3] = test system: HT-29 human colon cancer cells; experiment: Cytotoxicity against HT-29 cells
Description: The cytotoxicity of the test compounds was screened against HT-29 cells by a previously reported procedure (Ren Y et al. J. Nat. Prod 2011, 74, 1117-1125). Paclitaxel and etoposide were used as positive controls.
All arylnaphthalene lignans isolated from P. poilanet in the present study and their semi-synthetic analogues were evaluated for their cytotoxicity against HT-29 human colon cancer cells, using paclitaxel as the positive control (Table 6) (Ren Y et al. J. Nat. Prod 2011, 74, 1117-1125).

[4] = test system: NF-κB p65; experiment: Immunoblotting of p65 and p-p65 in NK cells; type: cell-based, human; conditions: 10 μM TPCK, 10 μM PL-C and IL-12, 18 h
Description: (A) Purified primary human NK cells were treated with 5 and 10 μM PL-C for 18 h. The cells were harvested and lysed for immunoblotting using p65 and p-p65 Abs. β-Actin immunoblotting was included as the internal control. Data shown are for treatment with PL-C alone (top panel) or in combination with IL-12 (10 ng/mL) (middle panel) or IL-15 (100 ng/mL) (bottom panel) and are the representative plots of four donors with similar results. Numbers under each lane represent quantification of p-p65 or p65 via densitometry, after normalizing to β-actin. (B) NKL cells were treated, and data are presented as described in (A). Data from one of three independent experiments with similar results are shown. (C) Purified primary human NK (left panel) or NKL cells (right panel) were cotreated with 10 μM PL-C and IL-12 (10 ng/mL) in the presence or absence of the NF-κB inhibitor TPCK (10 μM) for 18 h. Supernatants were assayed for IFN-γ secretion by ELISA (top panel), and cells were harvested and lysed for immunoblotting of p-p65 (bottom panel). Representative data from one of three donors with the similar data (left panel) and the summary of three independent experiments with similar results (right panel) are shown. **p<0.01. Error bars represent SD.
Immunoblotting. Immunoblotting was performed as described previously (Yu J et al. Immunity 2006, 24, 575-590; Yu J et al. Blood 2010, 115, 274-281). […]

[5] = test system: human primary NK cells; experiment: IFN-γ production by NK cells (intracellular flow cytometry, ELISA); type: cell-based; conditions: 10 μM TPCK, 10 μM PL-C and IL-12, 18 h
Description: (A) Chemical structure of PL-C (phyllanthusmin C, 4), (9) Healthy donor PBMCs (left panel) or enriched NK cells (right panel) were treated with DMSO vehicle control or 10 μM PL-C for 18 h in the presence of […] (10 ng/mL) or IL-15 (100 ng/mL). The cells were harvested and analyzed by intracellular flow cytometry to determine the frequency of IFN-γ^+ cells in CD56^+CD3^− NK cells (n=8 for PBMC and n=5 for enriched NK). (C) Highly purified (≧99.5%) human primary NK cells were treated with 10 μM PL-C for 18 h to determine the levels of IFN-γ secretion by ELISA. IFN-γ secretion from treatment with PL-C alone (left panel) or in combination with IL-12 (10 ng/mL, middle panel) or IL-15 (100 ng/mL, right panel) is shown. (D) Cells were treated as described in (C) and harvested at 12 h, IFNG mRNA expression was assessed by real-time RT-PCR, and the relative IFNG mRNA expression of each treatment was normalized to untreated vehicle control in the same donor. Data are shown as mean±SEM (n=6 in each treatment; error bars represent SEM). *p<0.05, **p<0.01, which denote statistical comparison between the two marked treatment groups (B-D). (E) Highly purified (≧99,5%) primary human NK cells were treated with 10 μM. PL-C in combination with various concentrations of IL-12 (10, 1, and 0.1 ng/mL) or IL-15 (100, 10, and 1 ng/mL) for 24 h to determine the levels of IFN-γ secretion. Representative data from one of three donors with the similar data are shown. *p<0.05, **p<0.01, which denote statistical comparison between the two marked treatment groups and are calculated from data of all tested donors. Error bars represent SD. […]
Isolation of PBMCs and NK cells. […] The purity of enriched NK cells was ≧80% assessed by flow cytometric analysis after staining with CD56-allophycocyanin and CD3-FITC Abs (BD Bio-sciences, San Jose, Calif.). […] The purity of magnetic bead-purified NK cells was ≧99.5%, as determined by the aforementioned flow cytometric analysis. […]

topo IIα, sequence (P11388 whole entry): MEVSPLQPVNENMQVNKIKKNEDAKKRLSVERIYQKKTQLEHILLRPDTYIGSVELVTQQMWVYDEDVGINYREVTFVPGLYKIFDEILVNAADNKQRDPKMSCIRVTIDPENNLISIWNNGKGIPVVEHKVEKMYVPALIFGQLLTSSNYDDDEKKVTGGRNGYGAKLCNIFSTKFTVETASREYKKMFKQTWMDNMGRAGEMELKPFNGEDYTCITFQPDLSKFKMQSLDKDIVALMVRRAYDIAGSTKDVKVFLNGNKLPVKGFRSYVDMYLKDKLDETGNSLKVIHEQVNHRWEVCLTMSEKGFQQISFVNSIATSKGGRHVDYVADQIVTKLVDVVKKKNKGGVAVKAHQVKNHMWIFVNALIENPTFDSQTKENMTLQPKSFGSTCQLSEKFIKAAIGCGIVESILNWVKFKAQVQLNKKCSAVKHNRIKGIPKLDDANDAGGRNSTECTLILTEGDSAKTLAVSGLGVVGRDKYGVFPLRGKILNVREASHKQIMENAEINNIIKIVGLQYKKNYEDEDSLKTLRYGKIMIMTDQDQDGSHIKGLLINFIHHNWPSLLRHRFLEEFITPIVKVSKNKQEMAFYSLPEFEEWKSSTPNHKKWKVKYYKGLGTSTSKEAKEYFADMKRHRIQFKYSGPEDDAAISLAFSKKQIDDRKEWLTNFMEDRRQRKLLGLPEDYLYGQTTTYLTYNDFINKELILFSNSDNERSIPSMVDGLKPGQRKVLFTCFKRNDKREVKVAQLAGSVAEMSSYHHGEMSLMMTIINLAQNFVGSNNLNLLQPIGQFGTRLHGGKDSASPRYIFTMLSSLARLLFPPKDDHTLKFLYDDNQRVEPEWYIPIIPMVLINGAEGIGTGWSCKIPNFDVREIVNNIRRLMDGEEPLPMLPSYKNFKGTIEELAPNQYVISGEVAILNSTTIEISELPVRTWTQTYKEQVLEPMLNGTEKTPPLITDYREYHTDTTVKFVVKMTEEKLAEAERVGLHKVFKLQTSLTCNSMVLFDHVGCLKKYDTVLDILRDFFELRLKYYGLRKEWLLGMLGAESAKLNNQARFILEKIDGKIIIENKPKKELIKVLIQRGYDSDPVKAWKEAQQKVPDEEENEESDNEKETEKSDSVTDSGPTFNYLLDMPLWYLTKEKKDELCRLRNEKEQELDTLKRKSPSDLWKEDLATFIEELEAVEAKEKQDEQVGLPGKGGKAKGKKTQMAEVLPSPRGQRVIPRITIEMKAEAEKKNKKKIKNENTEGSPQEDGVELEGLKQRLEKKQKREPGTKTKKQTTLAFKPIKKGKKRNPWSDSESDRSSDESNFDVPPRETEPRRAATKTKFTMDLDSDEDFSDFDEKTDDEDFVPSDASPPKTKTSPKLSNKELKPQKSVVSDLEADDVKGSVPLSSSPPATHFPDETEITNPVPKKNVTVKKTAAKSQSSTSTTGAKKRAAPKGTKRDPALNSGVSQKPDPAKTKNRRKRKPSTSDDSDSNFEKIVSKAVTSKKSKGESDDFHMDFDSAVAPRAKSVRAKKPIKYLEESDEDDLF

Compound | topo IIα inhibition (in words) [1] | solubility in aqueous solutions [2] | EC50 ([3]; read-out: ED50, toxicity towards HT-29 cells, natural samples) [µM] | IC50 ([3]; read-out: IC50, cytotoxicity toward HT-29 cells) [µM] | effect on PL-C-induced p65 phosphorylation [4] | effect on PL-C-induced IFN-γ secretion [5]
COc1cc2c(O[C@@H]3OC[C@H](OC(C)=O)[C@H](OC(C)=O)[C@H]3OC(C)=O)c3c(c(-c4ccc5c(c4)OCO5)c2cc1OC)C(=O)OC3 [Compound 7, 7-O-((2,3,4-tri-O-acetyl)-α-L-arabinopyranosyl) diphyllin] | not topo Ha inhibitors; also recorded: not topo IIα inhibitors | insoluble in aqueous solutions | 0.11 | 0.11 |  | 
N-tosyl-L-phenylalanine chloromethyl ketone [TPCK, reference compound] |  |  |  |  | inhibited PL-C-induced p65 phosphorylation | inhibition of PL-C-induced IFN-γ secretion
